In patent US8921306B2 (The University of Queensland, priority 2010, dated 2014):

Columns and labels:
[1] = Serum stability in normal human serum; format: in vitro ADME; settings: 37° C., LCMS, read-out: half-life (t1/2) in normal human serum
Experimental: Peptide stability was assessed in normal human serum (Sigma-Aldrich, NY, USA). The peptides were incubated with the serum in a water bath at 37° C. and aliquots were removed at specific time points. Serum proteins were precipitated after adding 3-fold excess acetonitrile, and proteins were precipitated by centrifugation at 17,000 rpm for 15 min. The supernatants were collected and analyzed by LCMS (4000 QTRAPR, Applied Biosystems) and all data normalized to the initial time point.

Human erythrocytes = experiment: Haemolysis assay; format: cell-based; settings: 37° C., 1 hour, absorbance at 544 nm
Experimental: Human erythrocytes were obtained from the Australian Red Cross Blood Service and diluted with PBS (pH 7.4) 1:50 to give a positive control reading of between 1.5-2.0 at 544 nm.
Equal amounts of cells were incubated with various concentrations of peptides and incubated at 37° C. for 1 hour. Cells were pelleted by centrifugation at 17,000 rpm for 5 minutes on a bench top centrifuge and the supernatant was collected. Haemolysis was assessed by reading the absorbance at 544 nm and normalized to 0% (PBS) and 100% (0.1% Triton-X100). This work was done with UQ ethics (200600011) and ARCBS (08-01QLD-07) approval.

circular dichroism = settings: 10 mM phosphate; pH 7.4; 22 °C; 50-400 uM
[2] = Circular dichroism spectroscopy (helicity); format: physicochemical
Experimental: CD measurements were performed using a Jasco model J-710 spectropolarimeter which was routinely calibrated with (1S)-(+)-10-camphorsulfonic acid. A stock solution of 1-2 mg of peptide was dissolved in 1 mL of water. Separate 500 μL solutions of 50, 100, 200 and 400 μM were then prepared using an appropriate amount of stock solution and making up the different with 10 mM Phosphate Buffer (final pH 7.1). […] Jasco quartz cell over the wavelength range 260-185 nm at 100 nm/min. with a bandwidth of 1.0 nm, response time of 2 s, resolution step width of 1 nm and sensitivity of 20-50 Mdeg. Each spectrum represents the average of 5 scans. Spectra were analyzed using the spectral analysis software and smoothed using ‘adaptive smoothing’ function. Concentrations were determined using the PULCON method. [Wider, Dreier, 2006, J. Am. Chem. Soc. 128:2571-2576]
The incorporation of two lactam bridges induced appreciable helicity, monitored at 222 nm, and was calculated to range between 32-77% helicity. […] This is due to the fact that residues 1-6 (or 1-5 in 6) are not constrained and would not be expected to be in a helical conformation as they feature amino acids that have little or no propensity to adopt helices in proteins. To determine whether the exocyclic regions were the sole cause of low helicity, SEQ ID NO:15 without the N-terminal message was investigated further. This 12-residue peptide features eight residues (K, R, Q) known to favor α-helicity in proteins, and was 60% helical in phosphate buffer by CD spectral analysis. The serine residue is conserved within the sequence of many of these peptides and is known to be a helix breaker.

ORL-1 receptor [3] = molecular target: T1, ORL-1 receptor (Mus musculus, UniProt P35377); experiment: Agonist functional activity assessed by ERK phosphorylation (pERK) in Neuro-2a cells; format: cell-based
T1 construct: Neuro-2a cells were a gift from Professor John Mattick's laboratory; endogenous in cells; host or cells: Neuro-2a cells
Experimental: (§1) Neuro-2a cells were a gift from Professor John Mattick's laboratory (Institute of Molecular Bioscience, University of Queensland) and were cultured in Gibco® DMEM (Invitrogen, CA, USA) supplemented with 10% FBS (Invitrogen, CA, USA), GIBCO® Pen/Strep (50 units/mL penicillin and 50 μg/mL streptomycin, Invitrogen, CA, USA) and GIBCO® NEAA (1× concentration, Invitrogen, CA, USA). Cells were split 1:10 every 3 days.
(§2) All cells were incubated at 37° C. and 5% CO2. When treated with pertussis toxin (PTX, catalogue number P7208, Sigma-Aldrich, NY, USA), cells were incubated with 500 ng/mL for 15 hours before use. Cells treated with MEK inhibitor PD98059 (catalogue number PHZ1164, Invitrogen, CA, USA) were preincubated with 50 μM for 1 hour before use.
(§3) Cells were placed in 12-well plates (NUNC™, NY, USA) and allowed to adhere for 24-36 h. […]
(§4) Membranes were washed 3×10 minutes with TBE (with 0.1% Tween-20) and incubated with a primary antibody. […] Radiography was quantified using ImageJ (ImageI 1.36b, NIH).
(§5) pERK and total ERK concentrations were determined using a modified protocol for the AlphaScreen Surefire Assay. […] The ratio of pERK to total ERK was determined using equation 1 and normalized to control. […]
(§6) Concentration responses were analyzed using non-linear regression (variable slope) (Prism5, GraphPad Software) and data is presented as either EC50 (for agonists) or IC50 (antagonists). […]

ORL-1 receptor [4] = molecular target: T1, ORL-1 receptor; experiment: Antagonist functional activity assessed by ERK phosphorylation (pERK) in Neuro-2a cells challenged with 100 nM nociceptin(1-17)-NH2; format: cell-based
Experimental: as §1, §2, §3, §4, §5, §6

C57BL/6 mice = experiment: Anti-nociceptive activity in mice, hot plate front paw withdrawal latency; format: in vivo; settings: co-administered 200 pmol with SEQ ID NO:8 (200 pmol)
Experimental: Mice (C57BL/6; n=45) were brought into the experimental room for at least 30 minutes prior to testing. They were then individually placed on an accredited hot plate heated to 53±0.54° C. and timed until any front paw withdrawal, licking or jumping behaviour was recorded (baseline response). Mice were not left on the hot plate for longer than 30 sec. […] Mice were then individually placed on the hot plate again at time points 1, 5, 15, 30, 45 and 60 min post injection. Each test was video monitored.
In a parallel experiment, agonist of SEQ ID NO:8 was co-administered with the helical antagonist of SEQ ID NO:13, where upon the increased paw withdrawal latency produced by agonist of SEQ ID NO:8 alone was abolished. This confirms that the helix constrained peptide of SEQ ID NO:13 is a potent antagonist of SEQ ID NO:8 in vivo.

T1 sequence (P35377 whole entry): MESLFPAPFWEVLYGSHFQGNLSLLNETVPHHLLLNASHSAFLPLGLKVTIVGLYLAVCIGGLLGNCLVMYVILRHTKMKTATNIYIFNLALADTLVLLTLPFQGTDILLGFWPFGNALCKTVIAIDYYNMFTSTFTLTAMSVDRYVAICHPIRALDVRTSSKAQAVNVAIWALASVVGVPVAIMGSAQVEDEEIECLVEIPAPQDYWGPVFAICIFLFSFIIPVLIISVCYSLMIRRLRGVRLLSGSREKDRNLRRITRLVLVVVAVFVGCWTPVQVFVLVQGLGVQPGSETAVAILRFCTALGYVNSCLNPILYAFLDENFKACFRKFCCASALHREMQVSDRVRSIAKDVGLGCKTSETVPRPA

CC(C)C[C@H](NC(=O)[C@H](CCCCN)NC(=O)[C@H](CCCN=C(N)N)NC(=O)[C@H](C)NC(=O)[C@H](CO)NC(=O)[C@H](CCCCN)NC(=O)[C@H](CCCN=C(N)N)NC(=O)[C@H](C)NC(=O)CNC(=O)[C@@H](NC(=O)[C@H](Cc1ccccc1)NC(=O)CNC(=O)CNC(=O)[C@@H](N)Cc1ccccc1)[C@@H](C)O)C(=O)N[C@@H](C)C(=O)N[C@@H](CC(N)=O)C(=O)N[C@@H](CCC(N)=O)C(=O)O [SEQ ID NO:1, reference compound]
half-life [1]: ≤ 1 h | haemolytic activity (Human erythrocytes): Neither of the cyclic peptides tested (SEQ ID NOs:7 AND 8), nor the unconstrained nociceptin(1-17)-OH (SEQ ID NO:1) had any haemolytic activity

C[C@@H]1NC(=O)[C@@H](NC(=O)[C@H](CCCCN)NC(=O)[C@H](CCCN=C(N)N)NC(=O)[C@@H]2CC(=O)NCCCC[C@H](NC(=O)CNC(=O)[C@@H](NC(=O)[C@H](Cc3ccccc3)NC(=O)CNC(=O)CNC(=O)[C@@H](N)Cc3ccccc3)[C@@H](C)O)C(=O)N[C@@H](CCCN=C(N)N)C(=O)N[C@@H](CCCCN)C(=O)N[C@@H](CO)C(=O)N2)CCCCNC(=O)C[C@@H](C(N)=O)NC(=O)[C@H](CCC(N)=O)NC(=O)[C@H](CC(N)=O)NC1=O [SEQ ID NO:7, H-FGGFTG[KRKSD]RK[KANQD]-NH2]
half-life [1]: > 6 h | haemolytic activity (Human erythrocytes): Neither of the cyclic peptides tested (SEQ ID NOs:7 AND 8), nor the unconstrained nociceptin(1-17)-OH (SEQ ID NO:1) had any haemolytic activity

C[C@@H](O)[C@H](NC(=O)[C@H](Cc1ccc(F)cc1)NC(=O)CNC(=O)CNC(=O)[C@@H](N)Cc1ccccc1)C(=O)NCC(=O)N[C@H]1CCCCNC(=O)C[C@@H](C(=O)N[C@@H](CCCN=C(N)N)C(=O)N[C@@H](CCCCN)C(=O)N[C@H]2CCCCNC(=O)C[C@@H](C(N)=O)NC(=O)[C@H](CCC(N)=O)NC(=O)[C@H](CC(N)=O)NC(=O)[C@H](CCCCN)NC2=O)NC(=O)[C@H](CO)NC(=O)[C@H](CCCCN)NC(=O)[C@H](CCCN=C(N)N)NC1=O [SEQ ID NO:8, H-FGGF(4-F)TG[KRKSD]RK[KKNQD]-NH2]
half-life [1]: > 6 h | haemolytic activity (Human erythrocytes): Neither of the cyclic peptides tested (SEQ ID NOs:7 AND 8), nor the unconstrained nociceptin(1-17)-OH (SEQ ID NO:1) had any haemolytic activity

CC(C)C[C@H](NC(=O)[C@H](CCCCN)NC(=O)[C@H](CCCNC(=N)N)NC(=O)[C@H](C)NC(=O)[C@H](CO)NC(=O)[C@H](CCCCN)NC(=O)[C@H](CCCNC(=N)N)NC(=O)[C@H](C)NC(=O)CNC(=O)[C@@H](NC(=O)[C@H](Cc1ccccc1)NC(=O)CNC(=O)CNC(=O)[C@@H](N)Cc1ccccc1)[C@@H](C)O)C(=O)N[C@@H](C)C(=O)N[C@@H](CC(N)=O)C(=O)N[C@@H](CCC(N)=O)C(=O)O [compound 1]
helicity (circular dichroism): 0.02 frac | fH (buffer) ([2]; 10 mM phosphate buffer (pH 7.4) at 22° C., fH calculated based on θ at 222 nm): 0.02 | fH (TFE*) ([2]; buffer: TFE 50:50, 22° C.): 0.15 | Emax (ORL-1 receptor [3]; N2a): 90 ± 7%

Ac-[KRKSD]RK[KKNQD]-NH2 (XRKSXRKXKNQX; N-acetyl, cyclic lactams, C-amide) [SEQ ID NO:15]
helicity ([2]; phosphate buffer, CD monitored at 222 nm): 60%

BzlGGGF(4-F)TG[KRKSD]RK[KKNQD]-NH2 (XGGXTGXRKSXRKXKNQX; N-benzyl, 4-F-Phe, cyclic lactams, C-amide) [SEQ ID NO:13]
agonist activity at single point concentration (ORL-1 receptor [3]; 1 μM): neither showed significant agonist activity | improvement in antagonist activity (fold) (ORL-1 receptor [4]; constrained relative to unconstrained analogue): over four-fold | effect on increased paw withdrawal latency produced by agonist SEQ ID NO:8 (C57BL/6 mice): abolished

BzlGlyGGFT[KARKD][KRKLD]-NH2 (XGGFTXARKXXRKLX; N-benzyl, cyclic lactams, C-amide) [SEQ ID NO:14]
antagonist activity (ORL-1 receptor [4]; up to 3 μM): abolished antagonist activity
